Reference: US20050159594A1, “Eplerenone crystal form exhibiting enhanced dissolution rate” (Pharmacia Corporation, priority 1995, published 2005)
Converted amounts (≈) assume the structure as drawn.

Tests used:
Type in all cases: physicochemical
[1] = Aqueous solubility of Form L eplerenone; details: for solubility: phosphate buffer, pH 7, aqueous, pH 7 (100 mM phosphate buffer)
Protocol: The aqueous solubility of Form L eplerenone was measured at pH 7 (100 mM phosphate buffer) at 5, 25 and 40° C. Approximately 30 mg of Form L eplerenone was mixed with approximately 10 ml of buffer to form a slurry of eplerenone at both 5 and 25° C. Approximately 40 mg of […] eplerenone was mixed with approximately 10 ml of buffer to form a slurry of eplerenone at 40° C. Samples were prepared in duplicate for each condition. The slurries were allowed to equilibrate in water shaker baths at the appropriate temperature and the solutions were analyzed for eplerenone content by ultraviolet visible analysis (245 nm) at time intervals of 1, 5, 12, 19, 27 and 36 days. Data from each temperature were appropriately averaged to determine the solubility of eplerenone at each temperature and are reported in Table 8.

[2] = Slurry conversion / thermodynamic stability of Form H versus Form L
Protocol: Approximately 150 mg of Form L eplerenone and 150 mg of Form H eplerenone were added to 5 ml ethyl acetate. The resulting slurry was magnetically stirred at 300 rpm overnight. The next day a sample of the resulting solid was collected by filtration.

[3] = Intrinsic dissolution rate of eplerenone polymorph samples
Protocol: Intrinsic dissolution rates were measured for the following four eplerenone polymorph samples: (i) Form L eplerenone prepared by direct crystallization from acetonitrile using water as an anti-solvent in the same manner as in Example 11, Procedure B; (ii) Form H eplerenone prepared by digestion in ethanol in the same manner as in Example 10, Procedure A, (iii) a mixture of 5% Form H and 95% Form L; and (iv) Form L eplerenone that was micronized to provide the following particle size distribution: 10% by weight of the particles under 9 μm, 50% by weight of the particles under 22 μm, and 90% by weight of the particles under 41 μm.
Eplerenone in an amount of 150 mg was weighed and placed into a VanKel intrinsic dissolution cavity. The powder was compressed at 8280 kPa using a Carver press to form tablets. The sample was then mounted on the intrinsic dissolution apparatus. The dissolution medium used was 1% sodium dodecyl sulfate (SDS) in HPLC water. All tests were conducted at 37° C. for 2 hours. […] Samples were drawn at determined intervals for the determination of rate of dissolution. […] The samples were analyzed by UV absorbance detection at 243 nm. Intrinsic dissolution rates were calculated from the slope of the linear portion of the concentration versus time profiles corrected for volume and normalized for the surface area of the dissolution tablet (0.5 cm^2).

| Solid form of residual solids after equilibration (DSC, TGA) ([1]; aqueous slurry pH 7, end of the 36 day equilibration) | solubility ([1]; 5 °C) | solubility ([1]; 25 °C) | solubility ([1]; 40 °C) | Solid form after slurry conversion (XRPD) ([2]; 150 mg Form L + 150 mg Form H in 5 ml ethyl acetate, stirred overnight) | Dissolution rate relative to Form L eplerenone (faster by) ([3]; aqueous medium, temperatures below the enantiotropic transition temperature) | SMILES | Thermodynamic stability, comparison of polymorphs ([2]; ambient temperatures) | Intrinsic dissolution rate, comparison in words ([3]; 1% SDS in HPLC water, 37 °C, 2 hours, compressed tablet 0.5 cm^2) |
| --- | --- | --- | --- | --- | --- | --- | --- | --- |
| determined to be Form L eplerenone | 240 µg/mL (≈ 579 µM) | 290 µg/mL (≈ 700 µM) | 390 µg/mL (≈ 941 µM) | – | – | COC(=O)[C@@H]1CC2=CC(=O)CC[C@]2(C)[C@@]23O[C@@H]2C[C@@]2(C)C(CC[C@@]24CCC(=O)O4)C13 (some centres unmarked) [Form L eplerenone, methyl hydrogen 9,11-epoxy-17-hydroxy-3-oxopregn-4-ene-7,21-dicarboxylate, γ-lactone] | more thermodynamically stable than Form H at ambient temperatures | – |
| – | – | – | – | entirely composed of Form L eplerenone | approximately 30% | COC(=O)[C@@H]1CC2=CC(=O)CC[C@]2(C)[C@@]23O[C@@H]2C[C@@]2(C)C(CC[C@@]24CCC(=O)O4)C13 (some centres unmarked) [Form H eplerenone, methyl hydrogen 9,11-epoxy-17-hydroxy-3-oxopregn-4-ene-7,21-dicarboxylate, γ-lactone] | – | faster intrinsic dissolution rate than Form L eplerenone |
